Measured values as given in patent US20240082282A1 (priority 2020, published 2024).
Where two headings read alike, the source gives them in different places.

Columns and labels:
[1] = system: Borrelia turcica DSM 16138
[2] = system: Salmonella typhimurium LT2 ATCC 19585; format: cell-based
[3] = system: Leptospira biflexa ATCC 23582
[4] = system: Brevinema andersonii ATCC 43811; conditions: Brevinema andersonii ATCC 43811, microaerophilic
[5] = system: Lactobacillus reuteri ATCC 23272; format: cell-based
[6] = system: Blautia producta ATCC 27340; format: cell-based; conditions: Blautia producta ATCC 27340, anaerobic
[7] = system: Pseudomonas aeruginosa PAO1; format: cell-based
[8] = system: Enterococcus faecalis KLE 2341; format: cell-based
[9] = system: Streptococcus sanguinis KLE 2374; format: cell-based; conditions: Streptococcus sanguinis KLE 2374, anaerobic, stool isolate
[10] = system: Borreliella miyamotoi; conditions: Borreliella miyamotoi, microaerophilic
[11] = system: Clostridium perfringens KLE 2326; experiment: microbe, parasite or virus in culture; format: cell-based; conditions: Clostridium perfringens KLE 2326, anaerobic, stool isolate
[12] = system: Bacteroides nordii KLE 2369; format: cell-based; conditions: Bacteroides nordii KLE 2369, anaerobic, stool isolate
[13] = system: Borrelia afzelii
[14] = system: Shigella sonnei ATCC 25931; format: cell-based
[15] = system: Enterobacter cloacae ATCC 13047; format: cell-based; conditions: Enterobacter cloacae ATCC 13047, anaerobic
[16] = system: Streptococcus parasanguinis KLE 2375; format: cell-based; conditions: Streptococcus parasanguinis KLE 2375, anaerobic, stool isolate
[17] = system: Bacteroides eggerthii KLE 2382; format: cell-based; conditions: Bacteroides eggerthii KLE 2382, anaerobic, stool isolate
[18] = system: Borreliella burgdorferi N40; conditions: Borreliella burgdorferi N40, microaerophilic
[19] = system: Bacteroides fragilis ATCC 25285; format: cell-based
[20] = system: Borrelia bavariensis
[21] = system: Fusobacterium nucleatum KLE 2428; format: cell-based; conditions: Fusobacterium nucleatum KLE 2428, anaerobic, stool isolate
[22] = system: Borreliella burgdorferi 297; conditions: Borreliella burgdorferi 297, microaerophilic
[23] = system: Bifidobacterium longum ATCC BAA-999; format: cell-based
[24] = system: Borrelia garinii
[25] = system: Clostridium tertium KLE 2303; format: cell-based; conditions: Clostridium tertium KLE 2303, anaerobic, stool isolate
[26] = system: Bacteroides cellulosilyticus KLE 2342; format: cell-based; conditions: Bacteroides cellulosilyticus KLE 2342, anaerobic, stool isolate
[27] = system: Borreliella burgdorferi B31
[28] = system: B. burgdorferi N40; experiment: Mouse infection model (IP injection, oral gavage); conditions: for B. burgdorferi culture (% positive) / Mean # of B. burgdorferi/10 mg of skin tissue (qPCR): twice a day for 5 days; for Culture positive (%): C3H, 5 days, whole ear culture; for B. burgdorferi culture from mice: oral gavage twice per day
[29] = system: Bacteroides vulgatus KLE 2381; format: cell-based; conditions: Bacteroides vulgatus KLE 2381, anaerobic, stool isolate
[30] = system: Bacteroides xylanisolvens KLE 2305; format: cell-based; conditions: Bacteroides xylanisolvens KLE 2305, anaerobic, stool isolate
[31] = system: Escherichia coli MG1655; format: cell-based
[32] = system: Staphylococcus epidermidis KLE 2378; format: cell-based; conditions: Staphylococcus epidermidis KLE 2378, anaerobic, stool isolate
[33] = system: Streptococcus salivarius KLE 2370; format: cell-based; conditions: Streptococcus salivarius KLE 2370, anaerobic, stool isolate

Hygromycin A
MIC ([1]; Borrelia turcica): 0.5 µg | Minimum inhibitory concentration (MIC) ([1]; Borrelia turcica DSM 16138, microaerophilic): 0.5 µg/mL | MIC ([2]; Salmonella typhimurium): >128 µg | Minimum inhibitory concentration (MIC) ([2]; Salmonella typhimurium LT2 ATCC 19585, anaerobic): >128 µg/mL | MIC ([3]; Leptospira biflexa): 4 µg | Minimum inhibitory concentration (MIC) ([3]; Leptospira biflexa ATCC 23582): 4 µg/mL | Minimum inhibitory concentration (MIC) [4]: 2 µg/mL | MIC ([5]; Lactobacillus reuteri): 32 µg | Minimum inhibitory concentration (MIC) ([5]; Lactobacillus reuteri ATCC 23272, anaerobic): 32 µg/mL | Minimum inhibitory concentration (MIC) [6]: 64 µg/mL | MIC ([7]; Pseudomonas aeruginosa): >128 µg | Minimum inhibitory concentration (MIC) ([7]; Pseudomonas aeruginosa PAO1): >128 µg/mL | MIC ([8]; Enterococcus faecalis): >128 µg | Minimum inhibitory concentration (MIC) ([8]; Enterococcus faecalis KLE 2341, anaerobic, stool isolate): >128 µg/mL | Minimum inhibitory concentration (MIC) [9]: 16 µg/mL | Minimum inhibitory concentration (MIC) [10]: 0.25 µg/mL | Minimum inhibitory concentration (MIC) [11]: 8 µg/mL | Minimum inhibitory concentration (MIC) [12]: 8 µg/mL | MIC ([13]; B. afzelii): 0.25 µg/mL | MIC ([13]; Borrelia afzelii): 0.25 µg | Minimum inhibitory concentration (MIC) ([13]; Borreliella afzelii, microaerophilic): 0.25 µg/mL | MIC ([14]; Shigella sonnei): 64 µg | Minimum inhibitory concentration (MIC) ([14]; Shigella sonnei ATCC 25931, anaerobic): 64 µg/mL | Minimum inhibitory concentration (MIC) [15]: >128 µg/mL | Minimum inhibitory concentration (MIC) [16]: 4 µg/mL | Minimum inhibitory concentration (MIC) [17]: 64 µg/mL | Minimum inhibitory concentration (MIC) [18]: 0.25 µg/mL | MIC ([19]; Bacteroides fragilis): >128 µg | Minimum inhibitory concentration (MIC) ([19]; Bacteroides fragilis ATCC 25285, anaerobic): 32 µg/mL | MIC ([20]; B. bavariensis): 0.25 µg/mL | MIC ([20]; Borrelia bavariensis): 0.25 µg | Minimum inhibitory concentration (MIC) ([20]; Borreliella bavariensis, microaerophilic): 0.25 µg/mL | Minimum inhibitory concentration (MIC) [21]: 1 µg/mL | Minimum inhibitory concentration (MIC) [22]: 0.25 µg/mL | MIC ([23]; Bifidobacterium longum): 8 µg | Minimum inhibitory concentration (MIC) ([23]; Bifidobacterium longum ATCC BAA-999, anaerobic): 8 µg/mL | MIC ([24]; B. garinii): 0.25 µg/mL | MIC ([24]; Borrelia garinii): 0.25 µg | Minimum inhibitory concentration (MIC) ([24]; Borreliella garinii, microaerophilic): 0.25 µg/mL | Minimum inhibitory concentration (MIC) [25]: 8 µg/mL | Minimum inhibitory concentration (MIC) [26]: 8 µg/mL | MIC [27]: 0.25 µg/mL | Minimum inhibitory concentration (MIC) ([27]; Borreliella burgdorferi B31, microaerophilic): 0.25 µg/mL | B. burgdorferi culture (% positive) ([28]; 25 mg/kg, oral gavage): 50% | Mean # of B. burgdorferi/10 mg of skin tissue (qPCR) ([28]; 25 mg/kg, oral gavage): <1 B. burgdorferi/10 mg of skin t | B. burgdorferi culture (% positive) ([28]; 50 mg/kg, oral gavage): 0% | Mean # of B. burgdorferi/10 mg of skin tissue (qPCR) ([28]; 50 mg/kg, oral gavage): <1 B. burgdorferi/10 mg of skin t | B. burgdorferi culture (% positive) ([28]; 70 mg/kg, oral gavage): 0% | Mean # of B. burgdorferi/10 mg of skin tissue (qPCR) ([28]; 70 mg/kg, oral gavage): <1 B. burgdorferi/10 mg of skin t | B. burgdorferi culture (% positive) ([28]; 75 mg/kg, IP injection): 0% | Mean # of B. burgdorferi/10 mg of skin tissue (qPCR) ([28]; 75 mg/kg, IP injection): <1 B. burgdorferi/10 mg of skin t | B. burgdorferi culture (% positive) ([28]; 250 mg/kg, oral gavage): 0% | Mean # of B. burgdorferi/10 mg of skin tissue (qPCR) ([28]; 250 mg/kg, oral gavage): <1 B. burgdorferi/10 mg of skin t | Culture positive (%) ([28]; intraperitoneal injection, daily dose 100 mg/kg/day): 0% | Culture positive (%) ([28]; oral gavage, daily dose 50 mg/kg/day): 50% | Culture positive (%) ([28]; oral gavage, daily dose 100 mg/kg/day): 0% | Culture positive (%) ([28]; oral gavage, daily dose 140 mg/kg/day): 0% | Culture positive (%) ([28]; oral gavage, daily dose 500 mg/kg/day): 0% | Clearance of infection ([28]; IP injection twice a day, after 5 days of treatment, similarly to ceftriaxone control): cleared the infection | B. burgdorferi culture from mice ([28]; 10 and 25 mg/kg): B. burgdorferi were cultured from mice | B. burgdorferi culture from mice ([28]; doses higher than 25 mg/kg): not at any of the higher doses | PCR from ear, joint and heart tissue ([28]; oral gavage, doses above 50 mg/kg): negative | Minimum inhibitory concentration (MIC) [29]: 64 µg/mL | Minimum inhibitory concentration (MIC) [30]: >128 µg/mL | MIC [31]: 128 µg | Minimum inhibitory concentration (MIC) [31]: 128 µg/mL | Minimum inhibitory concentration (MIC) [32]: 32 µg/mL | Minimum inhibitory concentration (MIC) [33]: 2 µg/mL
